Reference: patent US7879835B2 (Korea Research Institute of Chemical Technology, priority 2004, dated 2011)

Columns and labels:
[1] = test system: osteoclast (TRAP-positive multinuclear cell) formation; assay: Inhibitory effect on osteoclast formation (TRAP staining); type: cell-based, mice; conditions: compared to control; for inhibition at 0.1 µM / inhibition at 0.3 µM / inhibition at 1 µM / inhibition at 3 µM: Mus musculus, Osteoclast, read-out: Osteoclast formation inhibitory effects (%); for inhibition at 0.1 µM: 0.1 μM (Table 4b); for inhibition at 0.3 µM: 0.3 μM (Table 4b); for inhibition at 1 µM: 1 μM (Table 4b); for inhibition at 3 µM: 3 μM (Table 4b); for Osteoclast formation inhibitory effects (%): 8 days culture with M-CSF and RANKL
Method: The inhibitory activities of the alpha-arylmethoxyacrylate derivatives prepared in the above Examples on the proliferation of osteoclasts were examined as follows.
First, a bone marrow sample containing osteoclast pregenitor cells was isolated as follows. After sacrificing 7 to 9 week-old female mice by cervical dislocation, femur and tibia were excised aseptically while removing soft tissues attached thereto, After cutting both ends of the long bones, 1 ml of an enzyme solution containing 0.1% collagenase (Gibco), 0.05% trypsin and 0.5 mM EDTA (Gibco) was injected into the bone marrow cavity at one end using a syringe with a 26-gauge needle, and the bone marrow was then collected. After stirring the recovered bone marrow for 30 min, the precipitated bone marrow cells were collected, and cultured in α-minimum essential medium (α-MEM) supplemented with 10% FBS for 24 hrs. Then, non-adherent cells, which are osteoclast pregenitors, were aliquoted onto a culture plate at a density of 2×10^5 cells per well, and cultured for 8 days in α-MEM supplemented with 20 ng/ml of macrophage-colony stimulating factor (M-CSF, Peprotech, USA), 30 ng/ml RANKL (Peprotech, USA), and 0.3, 1.0 or 3 μM of the compounds of the Examples. Control cells were cultured at the same condition except not adding the compounds of the Examples.
After cell culture for 8 days, the adherent cells were washed with PBS and fixed with citrate-acetate-formaldehyde for 5 min. The fixed cells were incubated at 37° C. for 1 hr in acetate buffer (pH 5.0) containing naphthol AS-BI phosphate, fast Garnet GBC solution and 7 mM tartrate buffer (pH 5.0) to conduct TRAP (tartrate-resistant acid phosphatase) staining.

[2] = In vitro pharmacokinetics: metabolic stability in liver microsome; type: in vitro ADME; conditions: human liver microsome 1 mg/ml, 20 μM compound; for half-life at 20 µM: liver microsomes
Method: Metabolic stabilities of the compounds of the Examples were examined by employing microsome samples prepared from the human liver.
Each 20 μM of the compounds were reacted with 1 mg/ml of liver microsome and the half-lives and one-hour stabilities of the compounds were determined.

[3] = In vivo pharmacokinetics using female mice (serum concentration, HPLC); conditions: I.V.; for clearance / Half-life / Vd: mouse, serum, iv; for clearance: read-out: CL (clearance) (converted); for Half-life: read-out: Half-life (converted); for Vd: read-out: Vd (volume of distribution)
Method: Female mice each weighing […] were divided into groups of 5 mice each. The mice were anesthetized with ether, catheterized in their femoral artery and vein, respectively, and administered with 0.5 mg/kg body weight of compounds 234 and 274, and 5 mg/kg body weight of compounds 388, 404 and 415, respectively, via intravenous injection. Alternatively, 15 mg/kg body weight of compound 274 and 10 mg/kg body weight of compound 234 were orally administered to the mice.
At 0, 5, 10, 15 and 30 minutes and 1, 2, 4, 6, 9 and 12 hours after the intravenous injection, or at 0, 10, 20 and 40 minutes and 1, 2, 4, 6, 9 and 12 hours after the oral administration, 0.3 ml blood samples were taken from the mice through femoral artery. The blood samples were kept on an ice bath for 30 minutes and centrifuged at 3,000 rpm for 10 minutes to obtain a supernatant (serum). The supernatant samples were stored at −20° C.
Standard solution: Compounds 234, 274, 388, 404 and 415 were respectively dissolved in methanol to a concentration of 1 mg/ml to obtain stock solutions. The stock solutions were diluted with methanol to obtain standard solutions having concentrations of 40, 20, 10, 2, 1, 0.5, 0.2, 0.05 and 0.02 μg/ml, respectively.
Standard calibration curve: A stand calibration curve was prepared by employing calibration concentrations of 0.002, 0.005, 0.02, 0.05, 0.1, 0.2, 1, 2 and 4 μg/ml.
10 μl each of the standard solutions prepared above was added to 100 μl of normal serum sample and diluted 10 times. 250 μl of acetonitrile was added to the resulting dilution and the mixture was centrifuged for 10 minutes to obtain a supernatant. 300 μl of the supernatant was dried by evaporation under a nitrogen atmosphere and reconstituted by adding 50 μl of methanol. 20 μl of the resulting solution was analyzed by HPLC to prepare a standard calibration curve. HPLC was performed with Shimadzu ODS2 column (4.6×250 mm, 5 μm by employing a mixture of methanol/water (90/10 (v/v)) as the mobile phase at a flow rate of 1.2 ml/min, and measuring the absorbance at 240 nm.
Extraction: 100 μl of the serum sample obtained in (4-2-1) was put into a 1 ml microtube and 10 μl of methanol was added thereto. 250 μl of acetonitrile was added to the microtube and the mixture was centrifuged for 10 minutes to obtain a supernatant. 300 μl of the supernatant was dried by evaporation under a nitrogen atmosphere and reconstituted by adding 50 μl of methanol. 20 μl of the resulting solution was analyzed by the HPLC method as above.
Average concentrations of the compounds in the serum samples were plotted in a semi-log scale against the time lapsed after the administration, and the pharmacokinetic parameters were determined as a non-compartment open model by employing WinNonlin® program (Pharsight Corporation).

MG-63 cells = assay: Cytotoxicity test against osteoblast (MTT); type: cell-based, human
Method: In order examine the toxicities of the compounds of the Examples against osteoclast pregenitors, pregenitor cells were aliquotted onto a 96-well microplate at a density of 2×10^5 cells per well, treated with 2, 4 and 8 μM of the test compounds, respectively, and cultured for 48 hrs in α-MEM supplemented with 20 ng/ml of M-CSF (Peprotech, USA) using 37° C. incubator (5% CO2). At 3 hrs before the culture was finished, 50 μl of MTT (3-(4,5-dimethylthiazol-2-yl)-2,5-diphenyltetrazolium bromide) solution (50 μg/ml) was added to each well. Upon completion of the cell culture, the supernatant was removed, and the precipitated dye was reacted with 100 μl of isopropanol/0.04 N HCl at room temperature for 30 min to dissolve it. The absorbances of the wells were measured at 550 nm, and the relative absorbance of each well relative to that of the control (set as 100) is shown in Table 6.
In order to examine the toxicity of the compounds of the Examples against osteoblasts, human osteosarcoma-derived cell line, MG-63 (ATCC No. CRL-1427) cells were treated with 0.1, 0.3, 1.0 and 3.0 μM of the compounds of the Examples, and cultured in DMEM supplemented with 10% FBS (fetal bovine serum).

rats = assay: In vivo acute toxicity test (LD50); conditions: single dose, 2 weeks observation
Method: In order to determine the acute toxicities of the compounds prepared in Examples, 6-week old specific pathogen-free (SPF) rats each weighing […] were divided into groups of 10 rat each.
In case of subcutaneous administration, each of the compounds was dissolved in 5% PEG400 solution to a concentration of 20 mg/ml, the resulting solution was serially diluted with 5% PEG400 solution to concentrations of 5, 2.5, 1.25 and 0.625 mg/ml, and the dilutions were subcutaneously injected once to the rats at a dose of 10 ml/kg body weight.
In case of oral administration, each of the compounds was dissolved in soybean oil to a concentration of 180 mg/ml, the resulting solution was serially diluted with soybean oil to concentrations of 80, 20 and 5 mg/ml, and the dilutions were orally administered once to the rats at a dose of 20 ml/kg body weight. […]
During 2 weeks after the administration of the compounds, the death rate, clinical symptoms and weight changes of the rats were observed, and hematological and biochemical tests on blood samples were performed. Then, the rats were sacrificed and the internal organs were visually examined to check any abnormal signs in the organs of chest and abdomen.

osteoclasts = assay: Inhibitory effect on resorption activity of osteoclast (resorption pit area on calcium phosphate-coated plate); type: cell-based, mice; conditions: compared to control
Method: After finishing culture, the plate was washed with distilled water, and 50 μl/well of 5% sodium hypochlorite was added to the plate. The plate was let alone for 5 min, washed again with distilled water to remove the adherent cells, and dried at room temperature. Then, the area of formed resorption pits was calculated by means of Image Pro Plus software (Media Cybernetics Ver. 3.0).

Row | Compound | half-life at 20 µM [2] [min] | inhibition at 0.1 µM [1] [%] | inhibition at 0.3 µM [1] [%] | inhibition at 1 µM [1] [%] | inhibition at 3 µM [1] [%] | relative absorbance (MTT) relative to control (set as 100) (MG-63 cells; 0.33 μM compound) | relative absorbance (MTT) relative to control (set as 100) (MG-63 cells; 1 μM compound) | relative absorbance (MTT) relative to control (set as 100) (MG-63 cells; 3 μM compound) | also measured
1 | CO/C=C(/C(=O)OC)c1ccccc1COc1cccc(N2CCCC2)n1 [Compound No. 415, (E)-methyl-2-[2-((6-(pyrrolidin-1-yl)pyridin-2-yloxy)-methyl)phenyl]-3-methoxyacrylate] | 24.9 | 5 | 57 | 100 | 100 |  |  |  | AUC (area under the curve of blood concentration versus time) [3]: 176.4 ± 32.9 µg·h/mL; clearance [3]: 0.0317 mL/min; Half-life [3]: 647 ± 96.6 min; Vd [3]: 0.027 ± 0.0012 L/kg
2 | CO/C=C(/C(=O)OC)c1ccccc1COc1cccc(C(C)F)c1 (centres unmarked) [compound 169] |  |  |  |  |  |  |  |  | LD50 (rats; PO): >1000 mg/kg body weight; LD50 (rats; SC): 10 mg/kg body weight
3 | CO/C=C(/C(=O)OC)c1ccccc1COc1cccc(CN2CCOCC2)c1 [Compound No. 404, (E)-methyl-2-[2-((3-(morpholinomethyl)phenoxy)-methyl)phenyl]-3-methoxyacrylate] | 57.4 ± 2.3 |  | 9 | 63 | 100 | 83 | 92 | 94 | AUC (area under the curve of blood concentration versus time) [3]: 97.2 ± 14.8 µg·h/mL; clearance [3]: 0.0567 mL/min; Half-life [3]: 612 ± 114 min; Vd [3]: 0.0462 ± 0.0064 L/kg
4 | CO/C=C(/C(=O)OC)c1ccc(Cl)cc1COc1cccc(N2CCOCC2)c1 [Compound No. 386, (E)-methyl-2-[2-((3-morpholinophenoxy)methyl)-4-chlorophenyl]-3-methoxyacrylate] | 40.7 | 100 | 100 | 100 | 100 | 101 | 69 | 68 | 
5 | CO/C=C(/C(=O)OC)c1ccccc1COc1ccc(N(C)CC(C)C)cc1F [Compound No. 426, (E)-methyl-2-[2-((4-(N-isobutyl-N-methylamino)-2-fluorophenoxy)methyl)phenyl]-3-methoxyacrylate] | 42.7 ± 2.1 | 25 | 100 | 100 | 100 |  |  |  | 
6 | CO/C=C(/C(=O)OC)c1ccccc1COc1ccc(C2OCCCO2)cc1 [compound 161] |  |  |  |  |  |  |  |  | Osteoclast formation inhibitory effects (%) ([1]; 0.3 μM): 19%; Osteoclast formation inhibitory effects (%) ([1]; 1.0 μM): 100%; Osteoclast formation inhibitory effects (%) ([1]; 3.0 μM): 100%; Reduction (%) of the resorption pit area of osteoclasts (osteoclasts; 0.3 uM): 94%; Reduction (%) of the resorption pit area of osteoclasts (osteoclasts; 1 uM): 100%; Reduction (%) of the resorption pit area of osteoclasts (osteoclasts; 3 uM): 100%; Half-life [2]: 45.6 min; One-hour stability [2]: 40%

More lines, main results first:

Row | half-life at 20 µM [2] [min] | Compound | inhibition at 0.1 µM [1] [%] | inhibition at 0.3 µM [1] [%] | inhibition at 1 µM [1] [%] | inhibition at 3 µM [1] [%] | relative absorbance (MTT) relative to control (set as 100) (MG-63 cells; 0.33 μM compound) | relative absorbance (MTT) relative to control (set as 100) (MG-63 cells; 1 μM compound) | relative absorbance (MTT) relative to control (set as 100) (MG-63 cells; 3 μM compound) | also measured
7 | 55.5 ± 12 | CO/C=C(/C(=O)OC)c1ccc(Cl)cc1COc1ccc(N2CCOCC2)cn1 [compound 394] | 0 | 98 | 100 | 100 | 113 | 105 | 110 | 
8 | 107 ± 18.6 | CO/C=C(/C(=O)OC)c1ccccc1COc1cccc(N2CCN(C)CC2)c1 [compound 391] |  | 4 | 50 | 100 | 104 | 99 | 111 | 
9 | 43.9 | CO/C=C(/C(=O)OC)c1ccccc1COc1ccc(N2CCCCC2)c(F)c1 [compound 416] | 0 | 75 | 100 | 100 |  |  |  | 
10 | 43 ± 1.8 | CO/C=C(/C(=O)OC)c1ccccc1COc1ccc(N2CCCCC2)cc1 [compound 399] | 0 | 70 | 100 | 100 | 96 | 76 | 65 | 
